From patent publication US12110286B2, “Benzimidazolone derived inhibitors of BCL6” (Cancer Research Technology Limited, priority 2017, dated 2024)

What was measured:
[1] = molecular target: BCL6-NCOR2(SMRT) corepressor protein-protein interaction (Homo sapiens (Human), UniProt P41182); assay: NanoBRET cell assay; assay type: cell-based; settings: further generated data; transfected HEK293T cells, 6 hr; read-out: NanoBRET cell pIC50 (converted)
Description: A cellular nano-Bioluminescence Resonance Energy Transfer (nanoBRET) assay (Promega NanoBRET Nano-Glo Detection System, catalogue number N1662) was used to detect inhibition of the BCL6-NCOR2(SMRT) corepressor protein-protein interaction. DNA encoding full length BCL6 and NCOR2 were inserted into pFC32K.NanoLuc and pFC14K.HaloTag vectors (Promega) to produce C-terminal tagged fusion proteins BCL6-nanoLuc and NCOR2-HaloTag, respectively. HEK293T cells were plated (5×10^5) in T75 tissue culture flask and bulk transfected 48 hours later with Fugene 6 (Promega cat. #E2691) reagent and 18 μg total DNA plasmids encoding BCL6-nanoLuc as donor and NCOR2-HaloTag as acceptor, at a donor:acceptor DNA ratio of 1:25. At 24 hr post-transfection, HEK293T cells were collected and stored in liquid nitrogen in 90% FBS (PAN Biotech UK) and 10% DMSO. […] Frozen transfected HEK293T cells were thawed, centrifuged and freezing medium was replaced by phenol red-free OptiMEM+4% FBS (Life Technology). […] Cells were incubated for 6 hr at 37° C./5% C02 then NanoBRET furimazine substrate (Promega) was added to give a final concentration of 10 μM. After a short centrifugation the plates were read on an Envision (Perkin Elmer) plate reader equipped with a LUM/D600 Dual mirror, Lum 450/40 nm bandpass and D605 nm longpass filters, with a 0.2 sec reading to determine the BRET ratio. The % inhibition at each test concentration was calculated by normalising the BRET ratio to the appropriate high and low controls.

[2] = molecular target: Trx-6×His-BCL6 (human BCL6 BTB domain covering amino-acid sequence 5-129) (Homo sapiens (Human), UniProt P41182); assay: HTRF in vitro assay (BCL6 / BCOR-AF633 peptide); assay type: binding; settings: for activity in the HTRF assay: result in words
Description: The % inhibition at each concentration was calculated by normalising FRET ratio to the appropriate high (DMSO with all reagents) and low (DMSO without BCL6) controls.

[3] = further generated data, 1 nM Trx-6×His-BCL6, 300 nM BCOR-AF633 peptide, 0.5 nM anti-6×His-Terbium cryptate
[4] = initially generated data, 10 nM Trx-6×His-BCL6, 300 nM BCOR-AF633 peptide, 1 nM anti-6×His-Terbium cryptate

| SMILES | HTRF pIC50 [2, 3] | also measured |
| --- | --- | --- |
| Cc1cc(C)n(-c2cc(Nc3ccc4c(c3)n(CCC(C)(C)O)c(=O)n4C)c(Cl)cn2)n1 [Example 30a, 5-((5-chloro-2-(3,5-dimethyl-1H-pyrazol-1-yl)pyridin-4-yl)amino)-3-(3-hydroxy-3-methylbutyl)-1-methyl-1,3-dihydro-2H-benzo[d]imidazol-2-one] | 6.09 | IC50 [1]: 3.09 µM |
| Cn1c(=O)n(CCC(C)(C)O)c2cc(Nc3nc(-n4ccc(C(F)(F)F)n4)ncc3Cl)ncc21 [6-((5-chloro-2-(3-(trifluoromethyl)-1H-pyrazol-1-yl)pyrimidin-4-yl)amino)-1-(3-hydroxy-3-methylbutyl)-3-methyl-1,3-dihydro-2H-imidazo[4,5-c]pyridin-2-one] |  | activity in the HTRF assay [2]: did not exhibit the desired activity |
| CCOC(=O)c1cc(Nc2ccc3c(c2)n(CCC(C)C(=O)OC)c(=O)n3C)n2nccc2n1 (centres unmarked) [Example 8, Ethyl 7-[[3-(4-methoxy-3-methyl-4-oxo-butyl)-1-methyl-2-oxo-benzimidazol-5-yl]amino]pyrazolo[1,5-a]pyrimidine-5-carboxylate] | 6.01 | HTRF pIC50 [2, 4]: 5.83 |
| Cn1c(=O)n(CCN2CCOCC2)c2cc(Nc3ccnc(Cl)c3C#N)ccc21 [2-chloro-4-((1-methyl-3-(2-morpholinoethyl)-2-oxo-2,3-dihydro-1H-benzo[d]imidazol-5-yl)amino)nicotinonitrile] |  | activity in the HTRF assay [2]: did not exhibit the desired activity |
| CC1OC(=O)NC1Cn1c(=O)n(C)c2ccc(Nc3ccnc(Cl)c3C#N)cc21 (centres unmarked) [Example 34, 2-chloro-4-((1-methyl-3-((5-methyl-2-oxooxazolidin-4-yl)methyl)-2-oxo-2,3-dihydro-1H-benzo[d]imidazol-5-yl)amino)nicotinonitrile] | 5.31 |  |
| Cn1c(=O)n(CC2CCOCC2)c2cc(Nc3ccnc(Cl)c3C#N)ccc21 [2-chloro-4-((1-methyl-2-oxo-3-((tetrahydro-2H-pyran-4-yl)methyl)-2,3-dihydro-1H-benzo[d]imidazol-5-yl)amino)nicotinonitrile] |  | activity in the HTRF assay [2]: did not exhibit the desired activity |
| Cn1c(=O)n(CCC(C)(C)O)c2cc(Nc3nc(N4CC(C(F)(F)F)OC(C)(C)C4)ncc3Cl)ccc21 (centres unmarked) [Example 20k] | 6.11 |  |
| Cn1c(=O)n(CCC(C)(C)O)c2cc(Nc3cc(-n4ccc(C(F)(F)F)n4)ncc3Cl)ncc21 [6-((5-chloro-2-(3-(trifluoromethyl)-1H-pyrazol-1-yl)pyridin-4-yl)amino)-1-(3-hydroxy-3-methylbutyl)-3-methyl-1,3-dihydro-2H-imidazo[4,5-c]pyridin-2-one] |  | activity in the HTRF assay [2]: did not exhibit the desired activity |
| Cn1c(=O)n(CCC(C)(C)O)c2cc(Nc3ccnc(Cl)c3C(F)(F)F)ccc21 [5-((2-chloro-3-(trifluoromethyl)pyridin-4-yl)amino)-3-(3-hydroxy-3-methylbutyl)-1-methyl-1,3-dihydro-2H-benzo[d]imidazol-2-one] |  | activity in the HTRF assay [2]: did not exhibit the desired activity |
| COCCNc1cc(Nc2ccc3c(c2)n(C)c(=O)n3C)n2nccc2n1 [5-((5-((2-methoxyethyl)amino)pyrazolo[1,5-a]pyrimidin-7-yl)amino)-1,3-dimethyl-1,3-dihydro-2H-benzo[d]imidazol-2-one] |  | activity in the HTRF assay [2]: did not exhibit the desired activity |
| CCC(C)(O)Cn1c(=O)n(C)c2ccc(Nc3ccnc(Cl)c3C#N)cc21 (centres unmarked) [2-chloro-4-((3-(2-hydroxy-2-methylbutyl)-1-methyl-2-oxo-2,3-dihydro-1H-benzo[d]imidazol-5-yl)amino)nicotinonitrile] |  | activity in the HTRF assay [2]: did not exhibit the desired activity |
| Cn1c(=O)n(CCC(C)(C)O)c2cc(Nc3nc(N4CCCC(CO)C4)ncc3Cl)ccc21 (centres unmarked) [Example 42g, 5-((5-chloro-2-(3-(hydroxymethyl)piperidin-1-yl)pyrimidin-4-yl)amino)-3-(3-hydroxy-3-methylbutyl)-1-methyl-1,3-dihydro-2H-benzo[d]imidazol-2-one] | 6.92 |  |
| CC(=O)NC(C)CCn1c(=O)n(C)c2ccc(Nc3ccnc(Cl)c3C#N)cc21 (centres unmarked) [Example 13, N-[3-[6-[(2-Chloro-3-cyano-4-pyridyl)amino]-3-methyl-2-oxo-benzimidazol-1-yl]-1-methyl-propyl]acetamide] |  | HTRF pIC50 [2, 4]: 5.75 |
| CCNC(=O)c1cc(Nc2ccc3c(c2)n(CCC(C)(C)O)c(=O)n3C)c(Cl)cn1 [Example 14, 5-Chloro-N-ethyl-4-[[3-(3-hydroxy-3-methyl-butyl)-1-methyl-2-oxo-benzimidazol-5-yl]amino]pyridine-2-carboxamide] | 6.29 | HTRF pIC50 [2, 4]: 6.05 |
| Cn1c(=O)n(CC2CCCN(C(=O)OC(C)(C)C)C2)c2cc(Nc3ccnc(Cl)c3C#N)ccc21 (centres unmarked) [tert-butyl 3-((6-((2-chloro-3-cyanopyridin-4-yl)amino)-3-methyl-2-oxo-2,3-dihydro-1H-benzo[d]imidazol-1-yl)methyl)piperidine-1-carboxylate] |  | activity in the HTRF assay [2]: did not exhibit the desired activity |

Now from value to molecule, other results behind:

| HTRF pIC50 [2, 3] | SMILES | also measured |
| --- | --- | --- |
| 6.70 | COCC1CCCN(c2ncc(Cl)c(Nc3ccc4c(c3)n(CCC(C)(C)O)c(=O)n4C)n2)C1 (centres unmarked) [Example 35v, 5-((5-chloro-2-(3-(methoxymethyl)piperidin-1-yl)pyrimidin-4-yl)amino)-3-(3-hydroxy-3-methylbutyl)-1-methyl-1,3-dihydro-2H-benzo[d]imidazol-2-one] | IC50 [1]: 2.34 µM |
| 5.55 | CC1OCCC1Cn1c(=O)n(C)c2ccc(Nc3ccnc(Cl)c3C#N)cc21 (centres unmarked) [Example 19b] |  |
| 5.55 | Cn1c(=O)n(CC2C[C@H](F)CN2CC(F)(F)F)c2cc(Nc3ccnc(Cl)c3C#N)ccc21 (stereo in doubt) [Example 25h, 2-chloro-4-((3-(((2R,4S)-4-fluoro-1-(2,2,2-trifluoroethyl)pyrrolidin-2-yl)methyl)-1-methyl-2-oxo-2,3-dihydro-1H-benzo[d]imidazol-5-yl)amino)nicotinonitrile] |  |
| 6.01 | Cn1c(=O)n(C[C@@H]2CCCN2CC(F)(F)F)c2cc(Nc3nc(N4CC(C)(C)OC(C)(C)C4)ncc3Cl)ccc21 [Example 35i, (S)-5-((5-chloro-2-(2,2,6,6-tetramethylmorpholino)pyrimidin-4-yl)amino)-1-methyl-3-((1-(2,2,2-trifluoroethyl)pyrrolidin-2-yl)methyl)-1,3-dihydro-2H-benzo[d]imidazol-2-one] |  |
| 5.54 | Cn1c(=O)n(CCC(C)(C)O)c2cc(Nc3nc(Cl)nc(Cl)c3Cl)ccc21 [Example 22i] |  |
| 6.05 | Cn1c(=O)n(CCC(C)(C)O)c2cc(Nc3nc(N4CCC5(CC4)CC(F)(F)C5)ncc3Cl)ccc21 [Example 35f, 5-((5-chloro-2-(2,2-difluoro-7-azaspiro[3.5]nonan-7-yl)pyrimidin-4-yl)amino)-3-(3-hydroxy-3-methylbutyl)-1-methyl-1,3-dihydro-2H-benzo[d]imidazol-2-one] |  |
| 5.34 | CCC(Cn1c(=O)n(C)c2ccc(Nc3ccnc(Cl)c3C#N)cc21)N(C)C (centres unmarked) [Example 25b, 2-chloro-4-((3-(2-(dimethylamino)butyl)-1-methyl-2-oxo-2,3-dihydro-1H-benzo[d]imidazol-5-yl)amino)nicotinonitrile: formic acid (1:1)] |  |
| 6.00 | CCC(C)(O)CCn1c(=O)n(C)c2ccc(Nc3nc(-n4nc(C)cc4C)ncc3Cl)cc21 (centres unmarked) [Example 15f] |  |
| 5.76 | CCC1(Cn2c(=O)n(C)c3ccc(Nc4ccnc(Cl)c4C#N)cc32)CNC(=O)O1 (centres unmarked) [Example 22c] |  |
| 5.45 | Cn1c(=O)n(CCC(C)(C)O)c2cc(Nc3ncnc(Cl)c3C#N)c(F)cc21 [Example 22d] |  |
| 5.86 | Cc1cc(C)n(-c2ncc(Cl)c(Nc3ccc4c(c3)[nH]c(=O)n4C)n2)n1 [Example 15h] |  |
| 5.41 | CCNC(C)CCn1c(=O)n(C)c2ccc(Nc3ccnc(Cl)c3C#N)cc21.Cl (centres unmarked) [Example 26a, 2-chloro-4-((3-(3-(ethylamino)butyl)-1-methyl-2-oxo-2,3-dihydro-1H-benzo[d]imidazol-5-yl)amino)nicotinonitrile hydrochloride] |  |
| 5.55 | CC(Cn1c(=O)n(C)c2ccc(Nc3ccnc(Cl)c3C#N)cc21)C(C)(C)O (centres unmarked) [Example 27e, 2-chloro-4-((3-(3-hydroxy-2,3-dimethylbutyl)-1-methyl-2-oxo-2,3-dihydro-1H-benzo[d]imidazol-5-yl)amino)nicotinonitrile] |  |
